This is an account of results in patent publication US6762294B2, “Polynucleotides encoding polymorphic human GABAA receptor α-6 subunit” (The United States of America as represented by the …, priority 1999, dated 2004).

SMILES strings stand for the structures. Like-named read-outs stand apart in the source and are kept apart here.

Assay [1] deals with sons of alcoholics and controls (men). The source says: As part of a larger study, 41 men, were selected from among the first 113 completed 15-year follow-ups in a prospective study. […] Seventeen subjects whose low level of response to ethanol (LR) were in the lower third were compared on five polymorphisms of four genes with 24 men whose reactions to alcohol had been above the median.
For this pilot study, blood samples were taken from the first 41 appropriate consecutive men among the first 113 who completed 15-year follow-ups in an ongoing study. In order to identify subjects who were clearly low on LR, the men were selected to represent the two poles of LR. […] The alcohol challenges, evaluated changes from baseline for subjective feeling of intoxication, standing steadiness, and hormones after drinking 0.75 ml/kg of ethanol. (Schuckit and Gold, Arch Gen Psychiatry 45:211-216 (1986). The overall LR was evaluated as the change from baseline (pre-alcohol) to the time of peak blood alcohol concentration (BAC) (60 minute values) following alcohol consumption.

Assay [2] relates to children of alcoholics (COAs). Nature of the assay: Smooth pursuit eye movement task after intravenous diazepam. The assay is classed as in vivo, human. To be noted: COAs having the Pro385Ser allele relative to COAs having the Pro385 genotype.
Protocol: Initially, the saccadic eye movement velocity and smooth pursuit eye movement gain was measured in the 56 COAs tested. Two baseline measurements for each variable were taken and averaged. The differences from this baseline were then evaluated at set time points after each of four diazepam doses. The data points were used to determine, by a trapezoidal technique, the integrated area under the resulting curve. The area under the curve for the dependent variable was then divided by the area under the curve for plasma diazepam levels to correct for individual variability in diazepam levels. The ratios of the areas under the curves for COAs with the Ser385 homozygous genotype and the Pro/Ser heterozygous genotype were then compared by t-test. […] For the G1031C genotype, a one-way ANOVA was used for assessing association.
COAs were tested on two days about one week apart. Intravenous catheters were inserted into antecubital veins in each of the subjects arms. One intravenous line was used for drawing blood while the other was used for administration of either diazepam or placebo. […]
On each testing day, responses were measured at 12 separate time points: twice at baseline, once after each of the four doses, and at each of six 30 minute intervals after the last dose for a period spanning three hours. Eye movements were evaluated at each time point. […]

Take `CCO` [ethanol]: the “mean (±SD) LR” value in assay [1] (0.75 ml/kg ethanol, 5-HT2A His452Tyr genotype His-His) was “−.44”; in assay [1] (0.75 ml/kg ethanol, 5-HT2A His452Tyr genotype His-Tyr), “−.20”; in assay [1] (0.75 ml/kg ethanol, 5-HT2A T102C genotype CC) it was “−.46”; in assay [1] (0.75 ml/kg ethanol, 5-HT2A T102C genotype TC) it was “−.31”; in assay [1] (0.75 ml/kg ethanol, 5-HT2A T102C genotype TT) it was “−.71”; in assay [1] (0.75 ml/kg ethanol, 5-HT2C Cys23Ser genotype Cys), “−.39”. The “mean (±SD) LR” value is on record as “−.73” in assay [1] (0.75 ml/kg ethanol, 5-HT2C Cys23Ser genotype Ser); “−.30” in assay [1] (0.75 ml/kg ethanol, 5-HT Transporter genotype SL); “−.00” in assay [1] (0.75 ml/kg ethanol, 5-HT Transporter genotype SS); “−.27” in assay [1] (0.75 ml/kg ethanol, GABAA α6 genotype Pro/Pro); −1.01 in assay [1] (0.75 ml/kg ethanol, GABAA α6 genotype Pro/Ser). For the same compound, in assay [1] (0.75 ml/kg ethanol, combined SL and SS 5-HTT genotype groups), the “mean LR” value is 0.16±0.75. Moreover, the “proportion of subjects whose LR fell into the lowest third” value in assay [1] (5-HTT genotype LL) was found to be 71.4%; in assay [1] (5-HTT genotype SL) it was 31.6%; in assay [1] (5-HTT genotype SS), 12.5%. In addition, the “LR at age 20” value is −0.74±1.13 in assay [1] (LL/PP genotypes); −0.13±0.88 in assay [1] (SL/PP genotypes); 0.59±1.11 in assay [1] (SL/PS genotypes); 0.03±0.45 in assay [1] (SS/PP genotypes); −1.29±0.53 in assay [1] (combination of LL 5-HTT and Ser385 GABAA α6 genotypes). The “proportion in the lowest third in response to alcohol” value turned out to be 35.3% in assay [1] (Pro385 homozygotes) and 71.4% in assay [1] (those with Ser385 (Pro/Ser)). Moreover, the Sensitivity to ethanol entry in assay [1] (individuals with the Pro385Ser polymorphism compared with the wild-type polymorphism) is recorded as “reduced sensitivity”.

As for `CN1C(=O)CN=C(c2ccccc2)c2cc(Cl)ccc21` [diazepam], the “Sensitivity to diazepam (average smooth pursuit eye movement gain)” value in assay [2] is reported as “reduced sensitivity”.
